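All cell lines were grown in 96-well plates and treated with compound for 48 hours. GI50 = concentration required for 50% inhibition of growth.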 The source made the active and inactive calls. No stated cut-off is given here; in the data, active = GI50 up to about 1.1 µM and inactive = higher.
What was measured:
Experiment in all cases: inhibition of tumour cell growth, NCI panel, 48 h
A498 = test system: A498
CCRF-CEM = test system: CCRF-CEM
COLO 205 = test system: COLO 205
EKVX = test system: EKVX
HT-29 = test system: HT-29
IGROV-1 = test system: IGROV-1
Malme-3M = test system: Malme-3M
NCI-H23 = test system: NCI-H23
NCI-H522 = test system: NCI-H522
OVCAR-3 = test system: OVCAR-3
OVCAR-5 = test system: OVCAR-5
RXF 393 = test system: RXF 393
SK-MEL-28 = test system: SK-MEL-28
SNB-19 = test system: SNB-19
UACC-257 = test system: UACC-257
UACC-62 = test system: UACC-62
MOLT-4 = test system: MOLT-4
RPMI-8226 = test system: RPMI-8226

Measured: GI50

C[Si](C)(C)c1ccc(CC2(Cc3ccc([Si](C)(C)C)cc3)CCNC2)cc1
inactive: A498 1.55 µM | CCRF-CEM 4.67 µM | COLO 205 1.8 µM | EKVX 6.75 µM | HT-29 2.04 µM | IGROV-1 2.58 µM | Malme-3M 3.95 µM | NCI-H23 1.97 µM | NCI-H522 1.78 µM | OVCAR-3 1.97 µM | OVCAR-5 4.67 µM | RXF 393 1.71 µM | SK-MEL-28 2.33 µM | SNB-19 4 µM | UACC-257 2.44 µM | UACC-62 2.02 µM

CCOC(=O)N/N=C(\Cc1ccccc1)OCC
inactive: CCRF-CEM > 100 µM | COLO 205 > 100 µM | EKVX > 100 µM | HT-29 > 100 µM | IGROV-1 > 100 µM | MOLT-4 > 100 µM | NCI-H23 > 100 µM | NCI-H522 > 100 µM | OVCAR-3 > 100 µM | OVCAR-5 > 100 µM | RPMI-8226 > 100 µM | RXF 393 > 100 µM | SNB-19 > 100 µM | UACC-257 > 100 µM | UACC-62 > 100 µM

NC1N=Nc2ccccc21 (stereo unspecified)
inactive: CCRF-CEM > 100 µM | COLO 205 > 100 µM | EKVX > 100 µM | HT-29 > 100 µM | IGROV-1 > 100 µM | MOLT-4 > 100 µM | Malme-3M > 100 µM | NCI-H23 > 100 µM | NCI-H522 > 100 µM | OVCAR-3 > 100 µM | OVCAR-5 > 100 µM | RPMI-8226 > 100 µM | RXF 393 > 100 µM | SK-MEL-28 > 100 µM | SNB-19 > 100 µM | UACC-257 > 100 µM

O=C1c2ccccc2-c2nc3ccc(O)cc3n21
inactive: CCRF-CEM > 100 µM | COLO 205 > 100 µM | EKVX > 100 µM | HT-29 > 100 µM | IGROV-1 > 100 µM | MOLT-4 > 100 µM | Malme-3M > 100 µM | NCI-H23 > 100 µM | NCI-H522 > 100 µM | OVCAR-3 > 100 µM | OVCAR-5 > 100 µM | RPMI-8226 > 100 µM | RXF 393 > 100 µM | SK-MEL-28 > 100 µM | SNB-19 > 100 µM | UACC-257 > 100 µM | UACC-62 > 100 µM

CCOC(=O)/C(Br)=C1/OC(=O)c2ccccc2-c2ccccc21.CCOC(=O)/C(Br)=C1\OC(=O)c2ccccc2-c2ccccc21
inactive: CCRF-CEM 10.9 µM | COLO 205 15.2 µM | EKVX 31.7 µM | HT-29 11.3 µM | IGROV-1 18.6 µM | MOLT-4 14.7 µM | Malme-3M 17.7 µM | NCI-H23 21 µM | NCI-H522 15.8 µM | OVCAR-3 18.2 µM | OVCAR-5 20 µM | RPMI-8226 8.97 µM | SK-MEL-28 18.6 µM | UACC-257 18.2 µM | UACC-62 15.4 µM

O=C(/C=N/c1ccccc1[S-])c1ccco1.O=C(/C=N/c1ccccc1[S-])c1ccco1.[Zn+2]
inactive: A498 21.5 µM | CCRF-CEM 2.95 µM | COLO 205 17.5 µM | HT-29 18.7 µM | IGROV-1 5.14 µM | MOLT-4 5.2 µM | Malme-3M 10 µM | NCI-H23 5.41 µM | NCI-H522 10 µM | OVCAR-3 15.2 µM | OVCAR-5 16.8 µM | SK-MEL-28 10.7 µM | SNB-19 5.78 µM | UACC-257 12.5 µM | UACC-62 15.6 µM

COC1OC(C)C(OC(=O)C(C)(C)C)C(OS(=O)(=O)c2ccc(C)cc2)C1OS(=O)(=O)c1ccc(C)cc1 (stereo unspecified)
inactive: CCRF-CEM > 100 µM | COLO 205 > 100 µM | HT-29 > 100 µM | IGROV-1 > 100 µM | MOLT-4 > 100 µM | Malme-3M > 100 µM | NCI-H23 > 100 µM | NCI-H522 > 100 µM | OVCAR-3 > 100 µM | OVCAR-5 > 100 µM | RPMI-8226 > 100 µM | RXF 393 > 100 µM | SK-MEL-28 > 100 µM | SNB-19 > 100 µM | UACC-257 > 100 µM

COc1ccc2c(c1OC)C(=O)C2
inactive: CCRF-CEM > 100 µM | COLO 205 > 100 µM | EKVX > 100 µM | HT-29 > 100 µM | MOLT-4 > 100 µM | Malme-3M > 100 µM | NCI-H23 > 100 µM | NCI-H522 > 100 µM | RPMI-8226 > 100 µM | RXF 393 > 100 µM | SK-MEL-28 > 100 µM | SNB-19 > 100 µM | UACC-257 > 100 µM | UACC-62 > 100 µM

COC1(C)CC2N(C(=O)c3ccccc3)N=C(c3ccccc3)CC2(C)O1 (stereo unspecified)
inactive: A498 > 100 µM | CCRF-CEM 84.5 µM | HT-29 > 100 µM | IGROV-1 > 100 µM | MOLT-4 61.7 µM | Malme-3M > 100 µM | NCI-H522 > 100 µM | OVCAR-3 > 100 µM | OVCAR-5 > 100 µM | RPMI-8226 89.5 µM | SNB-19 > 100 µM | UACC-257 > 100 µM | UACC-62 43.3 µM

Reference: ChEMBL document CHEMBL1201862, “PubChem BioAssay data set” (2004)
